Experiments:
COX-2 [1] = molecular target: T1, COX-2 (Homo sapiens, UniProt P35354); assay: Whole cell assay for COX-2 using CHO transfected cell line CHO[hCOX-2], inhibition of PGE2 synthesis; type: cell-based; conditions: CHO[hCOX-2] cells, 10 μM AA, PGE2; read-out: COX-2 (IC50 mM) CHO
T1 construct: incubation of human whole blood with LPS, which induces COX-2; endogenous in cells; host or cells: heparinized fresh whole blood of human volunteers, incubated with LPS for 24 h
T1 sequence (P35354 18-604): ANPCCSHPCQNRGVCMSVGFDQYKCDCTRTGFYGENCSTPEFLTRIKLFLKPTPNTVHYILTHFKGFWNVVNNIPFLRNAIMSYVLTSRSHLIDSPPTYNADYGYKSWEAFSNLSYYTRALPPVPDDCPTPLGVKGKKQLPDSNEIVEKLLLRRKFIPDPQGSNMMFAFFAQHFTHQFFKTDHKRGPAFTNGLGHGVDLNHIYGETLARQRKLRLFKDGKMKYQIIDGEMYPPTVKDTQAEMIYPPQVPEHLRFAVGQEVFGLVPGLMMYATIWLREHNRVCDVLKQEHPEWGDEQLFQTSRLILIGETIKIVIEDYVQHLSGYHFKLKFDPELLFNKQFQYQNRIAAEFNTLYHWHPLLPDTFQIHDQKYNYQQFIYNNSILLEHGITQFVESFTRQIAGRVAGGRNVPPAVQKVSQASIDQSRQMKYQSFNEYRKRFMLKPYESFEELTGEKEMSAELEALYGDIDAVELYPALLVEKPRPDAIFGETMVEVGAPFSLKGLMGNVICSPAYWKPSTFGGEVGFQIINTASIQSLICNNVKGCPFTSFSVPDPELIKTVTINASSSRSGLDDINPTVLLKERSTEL

COX-2 [2] = molecular target: T1, COX-2; assay: Human whole blood assay, COX-2 (LPS-induced PGE2 production); type: cell-based; conditions: human whole blood, LPS-induced PGE2, 24 h; read-out: COX-2 (IC50 mM) HWB
Excerpt: (§1) As well, platelets in whole blood contain a large amount of the COX-1 enzyme. Immediately following blood clotting, platelets are activated through a thrombin-mediated mechanism. This reaction results in the production of thromboxane B2 (TxB2) via activation of COX-1. Thus, the effect of test compounds on TxB2 levels following blood clotting can be examined and used as an index for COX-1 activity. Therefore, the degree of selectivity by the test compound can be determined by measuring the levels of PGE2 after LPS induction (COX-2) and TxB2 following blood clotting (COX-1) in the same assay.
A. COX-2 (LPS-induced PGE2 production)
Fresh blood is collected in heparinized tubes by venipuncture from both male and female volunteers. The subjects have no apparent inflammatory conditions and have not taken any NSAIDs for at least 7 days prior to blood collection. Plasma is immediately obtained from a 2 mL blood aliquot to use as blank (basal levels of PGE2).

COX-1 [3] = molecular target: T2, COX-1 (Homo sapiens, UniProt P23219); assay: Assay of COX-1 activity from U937 cell microsomes; type: biochemical; parameters: Assay of COX-1 Activity from U937 cell microsomes; endogenous in cells; host or cells: U937 cells, 100,000×g microsomal pellet; conditions: U937 cell microsomes, PGE2; read-out: COX-1 (IC50 mM) U-937
Procedure: Assay of COX-1 Activity from U937 cell microsomes
U 937 cells are pelleted by centrifugation at 500×g for 5 min and washed once with phosphate-buffered saline and repelleted. Cells are resuspended in homogenization buffer consisting of 0.1 M Tris-HCl, pH 7.4, 10 mM EDTA, 2 μg/ml leupeptin, 2 μg/ml soybean trypsin inhibitor, 2 μg/ml aprotinin and 1 mM phenyl methyl sulfonyl fluoride. The cell suspension is sonicated 4 times for 10 sec and is centrifuged at 10,000×g for 10 min at 4° C. The supernatant is centrifuged at 100,000×g for 1 hr at 4° C. The 100,000×g microsomal pellet is resuspended in 0.1 M Tris-HCl, pH 7.4, 10 mM EDTA to approximately 7 mg protein/ml and stored at -80° C.
Microsomal preparations are thawed immediately prior to use, subjected to a brief sonication, and then diluted to a protein concentration of 125 μg/ml in 0.1 M Tris-HCl buffer, pH 7.4 containing 10 mM EDTA, 0.5 mM phenol, 1 mM reduced glutathione and 1 μM hematin. Assays are performed in duplicate in a final volume of 250 μl. Initially, 5 μl of DMSO vehicle or drug in DMSO are added to 20 μl of 0.1 M Tris-HCl buffer, pH 7.4 containing 10 mM EDTA in wells of a 96-deepwell polypropylene titre plate. 200 μl of the microsomal preparation are then added and pre-incubated for 15 min at room temperature before addition of 25 μl of […] arachidonic acid in […] Tris-HCl and 10 mM EDTA, pH 7.4. Samples are incubated for 40 min at room temperature and the reaction is stopped by the addition of 25 μl of 1 N HCl. Samples are neutralized with 25 μl of 1 N NaOH prior to quantitation of PGE2 content by radioimmunoassay (Dupont-NEN or Amersham assay kits). Cyclooxygenase activity is defined as the difference between PGE2 levels in samples incubated in the presence of arachidonic acid and ethanol vehicle.
In the assay, inhibition is determined by measuring the amount of prostaglandin E2 (PGE2) synthesized in the presence of arachidonic acid, cyclooxygenase-1 or cyclooxygenase-2 and a putative inhibitor.

COX-1 [4] = molecular target: T2, COX-1; assay: Human whole blood assay, COX-1 (clotting-induced TxB2 production); type: cell-based; parameters: platelets in whole blood contain a large amount of the COX-1 enzyme; endogenous in cells; host or cells: fresh human whole blood without anticoagulant (platelets), clotted 1 h at 37° C; conditions: clotting-induced TxB2, 1 h, read-out: COX-1 (IC50 mM) HWB
Procedure: as §1, with “Human whole blood provides a protein and cell-rich milieu appropriate for the study of biochemical efficacy of anti-inflammatory compounds such as selective COX-2 inhibitors. […] This is consistent with the observation that COX-2 inhibitors have no effect on PGE2 production in normal blood. These inhibitors are active only after incubation of human whole blood with LPS, which induces COX-2. This assay can be used to evaluate the inhibitory effect of selective COX-2 inhibitors on PGE2 production. As” for “As”
B. COX-1 (Clotting-induced TxB2 production)
Fresh blood is collected into vacutainers containing no anticoagulants. […] The tubes are vortexed and incubated at 37° C. for 1 hour to allow blood to clot. At the end of incubation, serum is obtained by centrifugation (12,000×g for 5 min.). […]

T2 sequence (P23219 24-599): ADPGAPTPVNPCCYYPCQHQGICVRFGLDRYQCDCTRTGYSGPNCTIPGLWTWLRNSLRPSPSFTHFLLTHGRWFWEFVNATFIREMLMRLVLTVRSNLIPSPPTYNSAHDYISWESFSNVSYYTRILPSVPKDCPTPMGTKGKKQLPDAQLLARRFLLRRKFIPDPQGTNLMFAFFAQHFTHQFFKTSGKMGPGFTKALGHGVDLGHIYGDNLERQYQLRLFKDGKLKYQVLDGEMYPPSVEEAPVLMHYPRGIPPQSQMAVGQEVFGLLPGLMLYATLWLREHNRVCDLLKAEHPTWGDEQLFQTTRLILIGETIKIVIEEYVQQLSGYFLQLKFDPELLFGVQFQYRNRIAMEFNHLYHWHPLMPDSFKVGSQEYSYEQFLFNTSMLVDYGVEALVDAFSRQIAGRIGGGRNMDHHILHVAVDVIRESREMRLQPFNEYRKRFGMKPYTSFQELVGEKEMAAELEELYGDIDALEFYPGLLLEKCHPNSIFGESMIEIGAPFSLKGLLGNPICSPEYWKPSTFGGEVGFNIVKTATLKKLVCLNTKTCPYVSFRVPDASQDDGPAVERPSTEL

| SMILES | IC50 (COX-2 [1]) | IC50 (COX-2 [2]) | IC50 (COX-1 [3]) | IC50 (COX-1 [4]) |
| --- | --- | --- | --- | --- |
| CS(=O)(=O)c1ccc(-c2cc(C(F)(F)F)cnc2N2CCCCC2)cc1 [Example 2, 3-(4-Methylsulfonyl)phenyl-2-piperidin-1-yl-5-trifluoromethylpyridine] | 4 nM | 0.0003 mM | 0.003 mM | > 0.1 mM |
| CS(=O)(=O)c1ccc(-c2cc(C(F)(F)F)cnc2N2CCCCC2CO)cc1 (stereo not shown) [Example 13, 3-(4-Methylsulfonyl)phenyl-2-(2-hydroxymethyl)piperidin-1-yl-5-trifluoromethylpyridine] | 100 nM | 0.0027 mM | 0.01 mM |  |
| CS(=O)(=O)c1ccc(-c2cc(C(F)(F)F)cnc2N2CCC[C@@H]2CO)cc1 [Example 8, 3-(4-Methylsulfonyl)phenyl-2-((2R)-2-hydroxymethyl)pyrrolidin-1-yl-5-trifluoromethylpyridine] | > 5000 nM | > 0.033 mM | > 0.01 mM |  |
| CS(=O)(=O)c1ccc(-c2cc(C(F)(F)F)cnc2N2CCC[C@H]2CO)cc1 [Example 7, 3-(4-Methylsulfonyl)phenyl-2-((2S)-2-hydroxymethyl)pyrrolidin-1-yl-5-trifluoromethylpyridine] | 40 nM | 0.0002 mM | 0.003 to 0.01 mM |  |
| CS(=O)(=O)c1ccc(-c2cccnc2N2CCCCC2)cc1 [Example 4, 3-(4-Methylsulfonyl)phenyl-2-piperidin-1-ylpyridine] | 130 nM | 0.006 mM | > 0.05 mM |  |
| CS(=O)(=O)c1ccc(-c2cc(C(F)(F)F)cnc2N2CC=CCC2)cc1 [Example 5, 3-(4-Methylsulfonyl)phenyl-2-(1,2,3,6-tetrahydropyridinyl)-5-trifluoromethylpyridine] | 2 nM | 0.001 mM | 0.001 to 0.003 mM |  |
